Laboratory results taken from patent US6552196B2, “Quinolone carboxylic acid derivatives” (Dong Wha Pharmaceutical Industrial Co., Ltd., priority 1997, dated 2003).
Values after ≈ are worked out from the molar mass of the structure shown.

Key:
Format in all cases: cell-based
[1] = system: Staphylococcus aureus 703E; assay: In vitro antibacterial activity against resistant strains (MIC); settings: resistant strain Staphylococcus aureus 703E; 2-fold agar dilution; methicillin resistant strains 48 hours at 30° C.; read-out: minimum inhibitory concentration (MIC)
Procedure: (§1) 10^7 cfu/ml of bacteria were inoculated and cultured for 18 hours at 37° C. and then the antibacterial activities were measured. For the methicillin resistant strains the activities were measured after 48 hours of cultivation at 30° C. Hoechst Standard strains were used for the testings.

[2] = system: Staphylococcus aureus 303; assay: as above; settings: resistant strain Staphylococcus aureus 303; 2-fold agar dilution; methicillin resistant strains 48 hours at 30° C.; read-out: minimum inhibitory concentration (MIC)
Procedure: as §1

[3] = system: Staphylococcus aureus 694E; assay: as above; settings: resistant strain Staphylococcus aureus 694E; 2-fold agar dilution; methicillin resistant strains 48 hours at 30° C.; read-out: minimum inhibitory concentration (MIC)
Procedure: as §1

[4] = system: Staphylococcus aureus 697E; assay: as above; settings: resistant strain Staphylococcus aureus 697E; 2-fold agar dilution; methicillin resistant strains 48 hours at 30° C.; read-out: minimum inhibitory concentration (MIC)
Procedure: as §1

[5] = system: Staphylococcus aureus 701E; assay: as above; settings: resistant strain Staphylococcus aureus 701E; 2-fold agar dilution; methicillin resistant strains 48 hours at 30° C.; read-out: minimum inhibitory concentration (MIC)
Procedure: as §1

[6] = system: Staphylococcus aureus 693E; assay: as above; settings: resistant strain Staphylococcus aureus 693E; 2-fold agar dilution; methicillin resistant strains 48 hours at 30° C.; read-out: minimum inhibitory concentration (MIC)
Procedure: as §1

[7] = system: Staphylococcus aureus 690E; assay: as above; settings: resistant strain Staphylococcus aureus 690E; 2-fold agar dilution; methicillin resistant strains 48 hours at 30° C.; read-out: minimum inhibitory concentration (MIC)
Procedure: as §1

[8] = system: Staphylococcus aureus 256E; assay: as above; settings: resistant strain Staphylococcus aureus 256E; 2-fold agar dilution; methicillin resistant strains 48 hours at 30° C.; read-out: minimum inhibitory concentration (MIC)
Procedure: as §1

[9] = system: Staphylococcus aureus 8236; assay: as above; settings: resistant strain Staphylococcus aureus 8236; 2-fold agar dilution; methicillin resistant strains 48 hours at 30° C.; read-out: minimum inhibitory concentration (MIC)
Procedure: as §1

[10] = system: Staphylococcus aureus 121E; assay: as above; settings: resistant strain Staphylococcus aureus 121E; 2-fold agar dilution; methicillin resistant strains 48 hours at 30° C.; read-out: minimum inhibitory concentration (MIC)
Procedure: as §1

[11] = system: Staphylococcus aureus 241; assay: as above; settings: resistant strain Staphylococcus aureus 241; 2-fold agar dilution; methicillin resistant strains 48 hours at 30° C.; read-out: minimum inhibitory concentration (MIC)
Procedure: as §1

[12] = system: Staphylococcus aureus 179; assay: as above; settings: resistant strain Staphylococcus aureus 179; 2-fold agar dilution; methicillin resistant strains 48 hours at 30° C.; read-out: minimum inhibitory concentration (MIC)
Procedure: as §1

[13] = system: Staphylococcus aureus 208E; assay: as above; settings: resistant strain Staphylococcus aureus 208E; 2-fold agar dilution; methicillin resistant strains 48 hours at 30° C.; read-out: minimum inhibitory concentration (MIC)
Procedure: as §1

[14] = system: Staphylococcus epidermidis 291; assay: as above; settings: resistant strain Staphylococcus epidermidis 291; 2-fold agar dilution; methicillin resistant strains 48 hours at 30° C.; read-out: minimum inhibitory concentration (MIC)
Procedure: as §1

[15] = system: Staphylococcus aureus 695E; assay: as above; settings: resistant strain Staphylococcus aureus 695E; 2-fold agar dilution; methicillin resistant strains 48 hours at 30° C.; read-out: minimum inhibitory concentration (MIC)
Procedure: as §1

[16] = system: Staphylococcus aureus 293; assay: as above; settings: resistant strain Staphylococcus aureus 293; 2-fold agar dilution; methicillin resistant strains 48 hours at 30° C.; read-out: minimum inhibitory concentration (MIC)
Procedure: as §1

[17] = system: Staphylococcus aureus 88E; assay: as above; settings: resistant strain Staphylococcus aureus 88E; 2-fold agar dilution; methicillin resistant strains 48 hours at 30° C.; read-out: minimum inhibitory concentration (MIC)
Procedure: as §1

[18] = system: Staphylococcus aureus 692E; assay: as above; settings: resistant strain Staphylococcus aureus 692E; 2-fold agar dilution; methicillin resistant strains 48 hours at 30° C.; read-out: minimum inhibitory concentration (MIC)
Procedure: as §1

[19] = system: Staphylococcus epidermidis 178; assay: as above; settings: resistant strain Staphylococcus epidermidis 178; 2-fold agar dilution; methicillin resistant strains 48 hours at 30° C.; read-out: minimum inhibitory concentration (MIC)
Procedure: as §1

[20] = system: Streptococcus pyogens 308A; assay: In vitro antibacterial activity (MIC), agar dilution; settings: 2-fold agar dilution, Muller-Hinton agar, 18 hours at 37° C., read-out: minimum inhibitory concentration (MIC)
Procedure: as §1

Esherichia coli DC0 = assay: as above; settings: 2-fold agar dilution, Muller-Hinton agar, 18 hours at 37° C., read-out: minimum inhibitory concentration (MIC)
Procedure: as §1

Esherichia coli TEM = assay: as above; settings: 2-fold agar dilution, Muller-Hinton agar, 18 hours at 37° C., read-out: minimum inhibitory concentration (MIC)
Procedure: as §1

Klebsiella oxytoca 1082E = assay: as above; settings: 2-fold agar dilution, Muller-Hinton agar, 18 hours at 37° C., read-out: minimum inhibitory concentration (MIC)
Procedure: as §1

[21] = system: Staphylococcus aureus 285; assay: as above; settings: 2-fold agar dilution, Muller-Hinton agar, 18 hours at 37° C., read-out: minimum inhibitory concentration (MIC)
Procedure: as §1

[22] = system: Pseudomonas aeruginosa 1771; assay: as above; settings: 2-fold agar dilution, Muller-Hinton agar, 18 hours at 37° C., read-out: minimum inhibitory concentration (MIC)
Procedure: as §1

Esherichia coli 1507E = assay: as above; settings: 2-fold agar dilution, Muller-Hinton agar, 18 hours at 37° C., read-out: minimum inhibitory concentration (MIC)
Procedure: as §1

Salmonella typhimurium = assay: as above; settings: Salmonella enterica, 2-fold agar dilution, Muller-Hinton agar, 18 hours at 37° C., read-out: minimum inhibitory concentration (MIC)
Procedure: as §1

[23] = system: Pseudomonas aeruginosa 1771M; assay: as above; settings: Pseudomonas aeruginosa, 1771M, 18 h, read-out: minimum inhibitory concentration (MIC)
Procedure: as §1

[24] = system: Pseudomonas aeruginosa 9027; assay: as above; settings: 2-fold agar dilution, Muller-Hinton agar, 18 hours at 37° C., read-out: minimum inhibitory concentration (MIC)
Procedure: as §1

[25] = system: Streptococcus faecium MD 8b; assay: as above; settings: Enterococcus faecium, MD8B, 2-fold agar dilution, Muller-Hinton agar, 18 hours at 37° C., read-out: minimum inhibitory concentration (MIC)
Procedure: as §1

Esherichia coli 078 = assay: as above; settings: 2-fold agar dilution, Muller-Hinton agar, 18 hours at 37° C., read-out: minimum inhibitory concentration (MIC)
Procedure: as §1

[26] = system: Staphylococcus aureus 503; assay: as above; settings: 2-fold agar dilution, Muller-Hinton agar, 18 hours at 37° C., read-out: minimum inhibitory concentration (MIC)
Procedure: as §1

[27] = system: Streptococcus pyogens 77A; assay: as above; settings: 2-fold agar dilution, Muller-Hinton agar, 18 hours at 37° C., read-out: minimum inhibitory concentration (MIC)
Procedure: as §1

[28] = system: Klebsiella aerogenes 1522E; assay: as above; settings: 2-fold agar dilution, Muller-Hinton agar, 18 hours at 37° C., read-out: minimum inhibitory concentration (MIC)
Procedure: as §1

[29] = system: Pseudomonas aeruginosa 1592E; assay: as above; settings: 2-fold agar dilution, Muller-Hinton agar, 18 hours at 37° C., read-out: minimum inhibitory concentration (MIC)
Procedure: as §1

Enterobacter clocae P99 = assay: as above; settings: 2-fold agar dilution, Muller-Hinton agar, 18 hours at 37° C., read-out: minimum inhibitory concentration (MIC)
Procedure: as §1

[30] = system: Staphylococcus aureus SG511; assay: as above; settings: 2-fold agar dilution, Muller-Hinton agar, 18 hours at 37° C., read-out: minimum inhibitory concentration (MIC)
Procedure: as §1

[31] = system: Enterobacter clocae 1321E; assay: as above; settings: 2-fold agar dilution, Muller-Hinton agar, 18 hours at 37° C., read-out: minimum inhibitory concentration (MIC)
Procedure: as §1

CON=C1CN(c2nc3c(cc2F)c(=O)c(C(=O)O)cn3C2CC2)CC12CNC2.CS(=O)(=O)O [Example 1, 1-Cyclopropyl-6-fluoro-7-[8-(methoxyimino)-2,6-diazaspiro[3,4]oct-6-yl]-4-oxo-1,4-dihydro[1,8]naphthyridine-3-carboxylic acid methanesulfonate]
MIC [1]: 0.049 µg/mL | MIC [2]: 0.781 µg/mL | MIC [3]: 0.049 µg/mL | MIC [4]: 0.013 µg/mL | MIC [5]: 0.049 µg/mL | MIC [6]: 0.049 µg/mL | MIC [7]: 0.025 µg/mL | MIC [8]: 0.025 µg/mL | MIC [9]: 0.781 µg/mL | MIC [10]: 0.049 µg/mL | MIC [11]: 0.781 µg/mL | MIC [12]: 0.781 µg/mL | MIC [13]: 0.049 µg/mL | MIC [14]: 1.56 µg/mL | MIC [15]: 0.049 µg/mL | MIC [16]: 0.781 µg/mL | MIC [17]: 0.049 µg/mL | MIC [18]: 0.025 µg/mL | MIC [19]: 1.56 µg/mL | MIC [20]: 0.098 µg/mL | MIC (Esherichia coli DC0): 0.195 µg/mL | MIC (Esherichia coli TEM): 0.025 µg/mL | MIC (Klebsiella oxytoca 1082E): 0.004 µg/mL | MIC [21]: 0.025 µg/mL | MIC [22]: 0.391 µg/mL | MIC (Esherichia coli 1507E): 0.025 µg/mL | MIC (Salmonella typhimurium): 0.013 µg/mL | MIC [23]: 0.391 µg/mL | MIC [24]: 0.781 µg/mL | MIC [25]: 0.049 µg/mL | MIC (Esherichia coli 078): 0.013 µg/mL | MIC [26]: 0.025 µg/mL | MIC [27]: 0.007 µg/mL | MIC [28]: 0.049 µg/mL | MIC [29]: 0.391 µg/mL | MIC (Enterobacter clocae P99): 0.025 µg/mL | MIC [30]: 0.007 µg/mL | MIC [31]: 0.013 µg/mL

CON=C1CN(c2c(F)cc3c(=O)c(C(=O)O)cn(C4CC4)c3c2Cl)CC12CNC2 [Example 4, 1-Cyclopropyl-6-fluoro-8-chloro-7-[8-(methoxyimino)-2,6-diazaspiro[3,4]oct-6-yl]-4-oxo-1,4-dihydro-3-quinolinecarboxylic acid]
MIC [20]: 0.195 µg/mL (≈ 0.448 µM) | MIC (Esherichia coli DC0): 0.391 µg/mL (≈ 0.899 µM) | MIC (Esherichia coli TEM): 0.049 µg/mL (≈ 0.113 µM) | MIC (Klebsiella oxytoca 1082E): 0.004 µg/mL (≈ 0.0092 µM) | MIC [21]: 0.049 µg/mL (≈ 0.113 µM) | MIC [22]: 0.781 µg/mL (≈ 1.8 µM) | MIC (Esherichia coli 1507E): 0.049 µg/mL (≈ 0.113 µM) | MIC (Salmonella typhimurium): 0.025 µg/mL (≈ 0.0575 µM) | MIC [23]: 0.391 µg/mL (≈ 0.899 µM) | MIC [24]: 0.781 µg/mL (≈ 1.8 µM) | MIC [25]: 0.098 µg/mL (≈ 0.225 µM) | MIC (Esherichia coli 078): 0.025 µg/mL (≈ 0.0575 µM) | MIC [26]: 0.025 µg/mL (≈ 0.0575 µM) | MIC [27]: 0.013 µg/mL (≈ 0.0299 µM) | MIC [28]: 0.098 µg/mL (≈ 0.225 µM) | MIC [29]: 0.781 µg/mL (≈ 1.8 µM) | MIC (Enterobacter clocae P99): 0.049 µg/mL (≈ 0.113 µM) | MIC [30]: 0.013 µg/mL (≈ 0.0299 µM) | MIC [31]: 0.025 µg/mL (≈ 0.0575 µM)
